“Also recorded” adds a separate entry of the source.
System: gelatin
Experiment: Collagenase cleavage of patterned gelatin on biosensor, BIND imaging
Format: biochemical
Settings: 1.5 mg/ml collagenase; gelatin versus regions without gelatin (rabbit IgG)
Description: A pattern of gelatin (1 mg/ml, Sigma) was applied to a biosensor with a micropipette tip in the shape of the letters “SRU.” The gelatin was allowed to incubate on the biosensor surface for about 60 minutes before a thorough rinse with water. Next, the entire biosensor surface was exposed to a 1 mg/ml solution of rabbit IgG (Sigma) that attached a uniform thin layer of protein across the biosensor so that the peak wavelength value of the biosensor would be roughly equivalent in all locations. After a second rinse in water, the entire biosensor was exposed to a 1.5 mg/ml solution of collagenase, a specific binding partner, for about 80 minutes. The collagenase is an enzyme that selectively cleaves gelatin, thus selectively removing protein from the surface only in regions where the gelatin was applied. […] As a consequence of this selective interaction, an image is measured where the word “SRU” appears as a region with lower peak wavelength value compared to surrounding regions, as shown in FIG. 10.

## collagenase
  peak wavelength value change in gelatin regions after collagenase: peak wavelength value in the gelatin regions is reduced relative to the regions without gelatin; also recorded: peak wavelength value in the gelatin reaction surfaces is reduced relative to the reference surfaces without gelatin

— patent US7927789B1, “Self-referencing biodetection method and patterned bioassays” (SRU Biosystems, Inc., priority 2002, dated 2011)
